# Assay results published in US20230279233A1, “ATROROSINS AS FOOD COLORS” (Chromologics ApS, priority 2020, published 2023).
# Where “and” joins values, the source holds several entries; their conditions need not be identical. Equal values may be shown once. Entries after “also recorded” stand apart in the source; their conditions may differ. Read-outs that look alike come from different tables or passages of the source.
# Key:
# TA 98 = experiment: mini-Ames (AMES MPF) genotoxicity; assay type: cell-based; settings: for genotoxic effects (in words): mini-Ames study
# Method: Resulting powder from example 2 was sent to Cyprotox to asses for genotoxicity in a mini-Ames experiment. 43.2 mg of atrorosin was sent to Cyprotox. Mini-Ames test were conducted under the guidelines of OECD.
# In comparison to the atrorosin tested above, similar 46.4 mg of carminic acid was also sent to Cyprotox to assess for genotoxicity.
# DPPH antioxidant assay = settings: 0 μM to 45 μM, 30 minutes, absorbance 517 nm, compared to Trolox (FIG. 3)
# Method: To assess antioxidant activity of Atrorosin-E, the common DPPH (2,2 Diphenyl-1-picrylhydrazyl) assay was used. A working solution of DPPH was made with a concentration of 220 μg/ml in ethanol. 1 g of the resulting powder from Example 2 was used to make a dilution row of atrorosin-E from 0 μM to 45 μM. […] of each sample was reacted to 1000 μL of DPPH for 30 minutes in the dark before absorbance was measured.
# Antioxidant activity was determined by calculating the inhibition of emission of DPPH by measuring absorbance of DPPH at 517 nm before and after incubation with reactants. As Atrorosins have background emission at 517, the before sample was measured seconds after addition of atrorosins rather than before. Antioxidant activity of Atrorosin-E was compared to the standard Trolox (FIG. 3).
# [1] = Temperature stability at 60° C. and 80° C. in McIlvaine buffer pH 5, absorption maxima
# Method: Buffer and atrorosin was mixed for 5 minutes before the solutions were subjected heating in an incubator at 60° C. and 80° C. to colorimetric analysis using spectrophotometer. The absorption maxima at 425 nm and 490 nm were determined in a microtiter plate with a 0.45 cm cell length with buffer as blank. In comparison to the data in Table 3, the absorption spectrum of betanin is determined as above. […] In comparison to Table 5, the absorption spectrum of betanin is determined as above.
# [2] = pH stability in McIlvaine buffer pH 2.2-7.2, absorption maxima by spectrophotometer; assay type: physicochemical
# [3] = Pharmacokinetic profile in rats, IV and PO; assay type: in vivo; settings: for Cmax: read-out: C0/Cmax
# Method: Resulting powder from example 2 was sent to Evotec to asses for the pharmacokinetic profile of atrorosin. 6 rats were used, 3 rats for IV injection of atrorosin and 3 rats for PO. The rats were injected or given through mouth gauge 2 mg/kg, and blood samples were taken at regular intervals.
# In comparison to example 10, similar carminic acid was also sent to Evotec to assess the pharmacokinetic profile.
# [4] = rat, IV 2 mg/kg, individual rats 1-3, 2 mg/kg
# [5] = rat, PO 2 mg/kg, individual rats 4-6, 2 mg/kg
smiles,measurement,setting,value
CCCCCCCC(=O)C1=C2C=C3C=C(/C=C\C(=O)O)N([C@@H](CCC(=O)O)C(=O)O)C=C3C(=O)C2(C)OC1=O (stereo partly shown) [Atrorosin-E],Fold increase (over baseline),"TA 98; TA 98 +S9, 62.5 μg/ml",0.55
same,mean # pos. Wells,"TA 98; TA 98 +S9, 62.5 μg/ml",1.33
same,Fold increase (over baseline),"TA 98; TA 98 +S9, 125 μg/ml",0.28
same,mean # pos. Wells,"TA 98; TA 98 +S9, 125 μg/ml",0.67
same,Fold increase (over baseline),"TA 98; TA 98 +S9, 250 μg/ml",0.42
same,mean # pos. Wells,"TA 98; TA 98 +S9, 250 μg/ml",1.00
same,Fold increase (over baseline),"TA 98; TA 98 +S9, 500 μg/ml",0.28
same,mean # pos. Wells,"TA 98; TA 98 +S9, 500 μg/ml",0.67
same,Fold increase (over baseline),"TA 98; TA 98 +S9, 1000 μg/ml",0.69
same,mean # pos. Wells,"TA 98; TA 98 +S9, 1000 μg/ml",1.67
same,Fold increase (over baseline),"TA 98; TA 98 +S9, 2000 μg/ml",0.00
same,mean # pos. Wells,"TA 98; TA 98 +S9, 2000 μg/ml",0.00
same,Fold increase (over baseline),"TA 98; TA 98 −S9, 62.5 μg/ml",0.00
same,mean # pos. Wells,"TA 98; TA 98 −S9, 62.5 μg/ml",0.00
same,Fold increase (over baseline),"TA 98; TA 98 −S9, 125 μg/ml",0.76
same,mean # pos. Wells,"TA 98; TA 98 −S9, 125 μg/ml",1.00
same,Fold increase (over baseline),"TA 98; TA 98 −S9, 250 μg/ml",1.52
same,mean # pos. Wells,"TA 98; TA 98 −S9, 250 μg/ml",2.00
same,Fold increase (over baseline),"TA 98; TA 98 −S9, 500 μg/ml",0.76
same,mean # pos. Wells,"TA 98; TA 98 −S9, 500 μg/ml",1.00
same,Fold increase (over baseline),"TA 98; TA 98 −S9, 1000 μg/ml",0.51
same,mean # pos. Wells,"TA 98; TA 98 −S9, 1000 μg/ml",0.67
same,Fold increase (over baseline),"TA 98; TA 98 −S9, 2000 μg/ml",0.51
same,mean # pos. Wells,"TA 98; TA 98 −S9, 2000 μg/ml",0.67
same,genotoxic effects (in words),TA 98,do not exert any genotoxic effects
same,genotoxic effects (in words),TA 98; listed as atrorosin,not genotoxic; also recorded: neither genotoxic
same,"Antioxidant activity (inhibition of DPPH, in words)",DPPH antioxidant assay,far more potent antioxidant than the control antioxidant Trolox
same,Absorption at 425 nm,"[1]; 60° C., pH 5, 1 H",2.01
same,Absorption at 490 nm,"[1]; 60° C., pH 5, 1 H",3.53
same,Absorption at 425 nm,"[1]; 60° C., pH 5, 2 H",1.98
same,Absorption at 490 nm,"[1]; 60° C., pH 5, 2 H",3.42
same,Absorption at 425 nm,"[1]; 60° C., pH 5, 3 H",1.78
same,Absorption at 490 nm,"[1]; 60° C., pH 5, 3 H",3.11
same,Absorption at 425 nm,"[1]; 60° C., pH 5, 24 H",0.78
same,Absorption at 490 nm,"[1]; 60° C., pH 5, 24 H",1.31
same,Absorption at 425 nm,"[1]; 60° C., pH 5, T0: Start",2.03
same,Absorption at 490 nm,"[1]; 60° C., pH 5, T0: Start",3.55
same,Absorption at 425 nm,"[1]; 80° C., pH 5, 1 H",1.66
same,Absorption at 490 nm,"[1]; 80° C., pH 5, 1 H",2.86
same,Absorption at 425 nm,"[1]; 80° C., pH 5, 2 H",1.23
same,Absorption at 490 nm,"[1]; 80° C., pH 5, 2 H",2.13
same,Absorption at 425 nm,"[1]; 80° C., pH 5, 3 H",0.99
same,Absorption at 490 nm,"[1]; 80° C., pH 5, 3 H",1.71
same,Absorption at 425 nm,"[1]; 80° C., pH 5, 15 min",2.00
same,Absorption at 490 nm,"[1]; 80° C., pH 5, 15 min",3.38
same,Absorption at 425 nm,"[1]; 80° C., pH 5, T0: Start",2.04
same,Absorption at 490 nm,"[1]; 80° C., pH 5, T0: Start",3.48
same,pH stability (in words),"[2]; compared with carminic acid, Tables 1 and 2",superior pH stability at low pH
same,Absorption at 425 nm,[2]; pH 2.2,0.63
same,Absorption at 490 nm,[2]; pH 2.2,3.30
same,Absorption at 425 nm,[2]; pH 3.5,0.73
same,Absorption at 490 nm,[2]; pH 3.5,3.92
same,Absorption at 425 nm,[2]; pH 5,0.75
same,Absorption at 490 nm,[2]; pH 5,3.94
same,Absorption at 425 nm,[2]; pH 7.2,0.73
same,Absorption at 490 nm,[2]; pH 7.2,3.91
same,C0/Cmax,"[3]; rat, IV 2 mg/kg, Mean",10098 ng/mL
same,CL/CL_F (plasma clearance),"[3]; rat, IV 2 mg/kg, Mean",16 ± 2 mL/min/kg
same,Clast,"[3]; rat, IV 2 mg/kg, Mean",3.15 ng/mL
same,MRT,"[3]; rat, IV 2 mg/kg, Mean",0.5 h
same,Vdss,"[3]; rat, IV 2 mg/kg, Mean",0.5 L/kg
same,t½,"[3]; rat, IV 2 mg/kg, Mean",1.3 ± 0.6 h
same,Cmax,"[3]; rat, IV 2 mg/kg, Mean",18.6 µM
same,Vdss,"[3]; rat, IV 2 mg/kg, individual rats 1-3",0.5 L/kg
same,AUC0-t,[3]; [4],2330 ng · hr/mL and 1818 ng · hr/mL and 2055 ng · hr/mL and 4297 nM · hr and 3352 nM · hr and 3790 nM · hr
same,AUCinf,[3]; [4],2336 ng · hr/mL and 1822 ng · hr/mL and 2063 ng · hr/mL and 4308 nM · hr and 3360 nM · hr and 3804 nM · hr
same,C0/Cmax,[3]; [4],9019 ng/mL and 10685 ng/mL and 10589 ng/mL
same,CL/CL_F,[3]; [4],14 mL/min/kg and 18 mL/min/kg and 16 mL/min/kg
same,Clast,[3]; [4],3.26 ng/mL and 3.45 ng/mL and 2.73 ng/mL
same,MRT,[3]; [4],0.5 h (2×) and 0.4 h
same,Tlast,[3]; [4],8 h (2×) and 6 h
same,t½,[3]; [4],1.3 h and 0.8 h and 1.9 h
same,Cmax,[3]; [4],16.6 µM and 19.7 µM and 19.5 µM
same,C0/Cmax,"[3]; rat, PO 2 mg/kg, Mean",4.46 ng/mL
same,Clast,"[3]; rat, PO 2 mg/kg, Mean",3.28 ng/mL
same,Bioavailability (%) Using AUC0-t,"[3]; rat, PO 2 mg/kg, Mean, 2 mg/kg",0.3%
same,Bioavailability (%) Using AUC0-t,"[3]; rat, PO 2 mg/kg, Mean, listed as atrorosin, 2 mg/kg",0.3%
same,Cmax,"[3]; rat, PO 2 mg/kg, Mean",0.0082 µM
same,Tmax,"[3]; rat, PO 2 mg/kg, Median",1 h
same,Tlast,"[3]; rat, PO 2 mg/kg, individual rats 4-6",2 h
same,AUC0-t,[3]; [5],6.35 ng · hr/mL and 7.6 ng · hr/mL and 5.76 ng · hr/mL and 11.7 nM · hr and 13.9 nM · hr and 10.6 nM · hr
same,Bioavailability (%) Using AUC0-t,[3]; [5],0.3% (2×) and 0.4%
same,C0/Cmax,[3]; [5],4.35 ng/mL and 5.35 ng/mL and 3.68 ng/mL
same,Clast,[3]; [5],2.6 ng/mL and 2.88 ng/mL
same,Tmax,[3]; [5],2 h and 1 h and 0.25 h
same,Cmax,[3]; [5],0.00803 µM and 0.0099 µM and 0.00679 µM
same,Clast,"[3]; rat, in vivo, po, 2 mg/kg",4.35 ng/mL
same,safety when ingested / adverse effects on rats (in words),"[3]; rats, 2 mg/kg IV or PO, 2 mg/kg",safe when ingested; also recorded: nor does it have any adverse effects on rats
